# Source: patent US5292737A, “N,N'-bis(sulfonamido)-2-amino-4-iminonaphthalen-1-ones and N,N'-bis(amido)-2-amino-4-iminonaphthalen-1-ones” (Sphinx Pharmaceuticals Corporation, priority 1992, dated 1994)
# Experiments:
# PKC isoenzyme α = biological target: T1, PKC isoenzyme α (Homo sapiens, UniProt P17252); test: Protein kinase C inhibition assay, PKC isoenzyme α; format: biochemical; settings: read-out: IC50 PKC α
# T1 construct: made in house; host or cells: baculovirus-insect cell expression system
# In short: (§1)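 Inhibition is measured as the compound concentration halving phosphate transfer to histone H1 or myelin basic protein by baculovirus-expressed enzyme. Assays use near-physiologic conditions with sub-saturating phosphatidylserine/DAG vesicles, compound at four concentrations up to 150 μM, and a 10 min reaction terminated by trichloroacetic acid before filter counting.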
# PKC isoenzyme βII = biological target: T2, PKC isoenzyme βII (Homo sapiens, UniProt P05771); test: Protein kinase C inhibition assay, PKC isoenzyme βII; format: biochemical; settings: read-out: IC50 PKC βII
# T2 construct: made in house; host or cells: baculovirus-insect cell expression system
# T2 sequence (P05771 1-673 isoform P05771-2): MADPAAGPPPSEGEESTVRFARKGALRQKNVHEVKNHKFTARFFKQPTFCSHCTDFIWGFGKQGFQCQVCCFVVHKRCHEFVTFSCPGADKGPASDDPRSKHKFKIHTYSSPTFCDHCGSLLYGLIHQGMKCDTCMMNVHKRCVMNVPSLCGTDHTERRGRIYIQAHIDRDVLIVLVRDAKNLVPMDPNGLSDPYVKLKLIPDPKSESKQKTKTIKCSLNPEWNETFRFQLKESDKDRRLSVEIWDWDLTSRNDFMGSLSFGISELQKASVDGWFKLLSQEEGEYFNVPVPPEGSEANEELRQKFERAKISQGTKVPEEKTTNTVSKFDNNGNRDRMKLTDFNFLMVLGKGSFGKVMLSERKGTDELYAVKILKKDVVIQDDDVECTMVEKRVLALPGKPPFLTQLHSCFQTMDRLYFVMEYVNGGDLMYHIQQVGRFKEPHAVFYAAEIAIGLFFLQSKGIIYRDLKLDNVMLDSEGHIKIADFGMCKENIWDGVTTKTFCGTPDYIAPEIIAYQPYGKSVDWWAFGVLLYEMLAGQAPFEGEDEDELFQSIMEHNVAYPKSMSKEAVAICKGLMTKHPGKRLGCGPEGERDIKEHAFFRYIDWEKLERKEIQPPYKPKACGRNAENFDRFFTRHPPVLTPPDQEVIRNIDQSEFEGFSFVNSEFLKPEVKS
# In short: as §1
# PKC isoenzyme γ = biological target: T3, PKC isoenzyme γ (Homo sapiens, UniProt P05129); test: Protein kinase C inhibition assay, PKC isoenzyme γ; format: biochemical; settings: read-out: IC50 PKC γ
# T3 construct: made in house; host or cells: baculovirus-insect cell expression system
# In short: as §1
# PKC isoenzyme δ = biological target: T4, PKC isoenzyme δ (Homo sapiens, UniProt Q05655); test: Protein kinase C inhibition assay, PKC isoenzyme δ; format: biochemical; settings: read-out: IC50 PKC δ
# T4 construct: made in house; host or cells: baculovirus-insect cell expression system
# T4 sequence (Q05655 whole entry): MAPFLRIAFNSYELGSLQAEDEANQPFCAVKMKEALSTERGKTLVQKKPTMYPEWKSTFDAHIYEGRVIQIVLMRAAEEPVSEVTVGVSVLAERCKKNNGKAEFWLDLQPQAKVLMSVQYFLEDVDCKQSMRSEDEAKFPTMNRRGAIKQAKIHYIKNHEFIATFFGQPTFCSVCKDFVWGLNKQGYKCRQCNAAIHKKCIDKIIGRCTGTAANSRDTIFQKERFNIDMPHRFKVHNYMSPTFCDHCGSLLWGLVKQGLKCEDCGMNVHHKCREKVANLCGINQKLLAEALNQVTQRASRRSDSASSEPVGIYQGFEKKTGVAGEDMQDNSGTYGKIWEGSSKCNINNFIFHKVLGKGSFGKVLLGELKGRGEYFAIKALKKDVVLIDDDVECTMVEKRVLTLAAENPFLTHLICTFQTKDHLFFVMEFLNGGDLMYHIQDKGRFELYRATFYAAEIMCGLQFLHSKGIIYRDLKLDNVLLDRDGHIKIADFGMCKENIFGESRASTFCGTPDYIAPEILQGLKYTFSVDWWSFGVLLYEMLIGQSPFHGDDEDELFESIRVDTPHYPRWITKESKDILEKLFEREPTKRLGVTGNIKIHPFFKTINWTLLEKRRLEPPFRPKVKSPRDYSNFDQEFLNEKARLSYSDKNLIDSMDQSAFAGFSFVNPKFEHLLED
# In short: as §1
# [1] = test system: MCF-7 human breast tumor cell line; test: Human Tumor Cell Growth Inhibition (3H-thymidine incorporation); format: cell-based
# Method: MCF-7 a human breast tumor cell line was obtained from the National Cancer Institute, Frederick, Md. Tumor cells were trypsinized with 0.05% trypsin obtained from GIBCO (Grand Island Biological Co. Laboratories, Grand Island, N.Y.), counted with a hemacytometer and seeded at a concentration of 7,500 cells/well in a 96 well microtiter plate and allowed to attach to the surface overnight. To determine a concentration response, test agents were serially diluted an […] added at 2× final concentration to quadruplicate cultures to bring the total volume of each well to […]. The microtiter plate was then incubated at 37° C., 5% CO2 for 24 hrs with ^3 H-thymidine added at a concentration of 0.5 mCi/well in […] of 0.05% trypsin (GIBCO) was added to each well. Cells were checked microscopically to determine detachment from surfaces, and plates were harvested with a cell harvester (PHD, Cambridge Technology, Inc.). Filter paper corresponding to wells were placed in scintillation vials and counted to determine the amount ^3 H-thymidine incorporated by the cells. Counts per minute (CPM) of quadruplicate cultures were averaged and a percent of control calculated for each test agent concentration by the following formula: [formula]
# The IC50 or concentration necessary to inhibit the proliferation of cells by 50% compared to control, of each test agent was determined by plotting % control vs log concentration for each dilution and then linear forecasting the 50% control value onto the X axis on a Quattro Pro computer program. Only regression values with a correlation coefficient greater then 0.9 were considered acceptable.
# [2] = Homo sapiens, MCF7, MCF-7, 24 hrs
structure (smiles),measurement,setting,value
Cc1cc(C)nc(NS(=O)(=O)c2cc(N=C3C=C(Nc4ccc(C)c(S(=O)(=O)Nc5cc(C)cc(C)n5)c4)C(=O)c4ccccc43)ccc2C)c1 [Compound 6ag],IC50,PKC isoenzyme α,22 µM
same,IC50,PKC isoenzyme βII,28 µM
same,IC50,PKC isoenzyme γ,16 µM
same,IC50,PKC isoenzyme δ,49 µM
same,IC50,"[1]; MCF-7, 24 hrs",1.8 µM
COc1ccc(NS(=O)(=O)c2ccc(N=C3C=C(Nc4ccc(S(=O)(=O)Nc5ccc(OC)nn5)cc4)C(=O)c4ccccc43)cc2)nn1 [Compound 3j],IC50,PKC isoenzyme α,67 µM
same,IC50,PKC isoenzyme βII,45 µM
same,IC50,PKC isoenzyme γ,15 µM
same,IC50,PKC isoenzyme δ,17 µM
same,IC50,[1]; [2],16.1 µM
Cc1cc(NS(=O)(=O)c2ccc(N=C3C=C(Nc4ccc(S(=O)(=O)Nc5cc(C)nc(C)n5)cc4)C(=O)c4ccccc43)cc2)nc(C)n1 [Compound 6d],IC50,PKC isoenzyme α,41 µM
same,IC50,PKC isoenzyme βII,39 µM
same,IC50,PKC isoenzyme γ,24 µM
same,IC50,PKC isoenzyme δ,47 µM
same,IC50,"[1]; MCF-7, 24 hrs",17.9 µM
COc1cnc(NS(=O)(=O)c2ccc(N=C3C=C(Nc4ccc(S(=O)(=O)Nc5ncc(OC)cn5)cc4)C(=O)c4ccccc43)cc2)nc1 [Compound 3h],IC50,PKC isoenzyme α,105 µM
same,IC50,PKC isoenzyme βII,53 µM
same,IC50,PKC isoenzyme γ,55 µM
same,IC50,PKC isoenzyme δ,58 µM
same,IC50,[1]; [2],12.2 µM
